Source: patent US8889878B2, “Haloalky-substituted amides as insecticides and acaricides” (Bayer CropScience AG, priority 2009, dated 2014)

Tests used:
Musca domestica adults = test: Musca domestica test (MUSCDO), Example 14; type: in vivo; settings: application rate 100 ppm, treated sponge, after 2 days
Method: Musca domestica Test (MUSCDO) • Solvent: dimethyl sulphoxide To prepare an appropriate active ingredient formulation, 10 mg of active ingredient are mixed with 0.5 ml of dimethyl sulphoxide, and the concentrate is diluted with water to the desired concentration. Vessels containing a sponge which has been treated with the active ingredient formulation of the desired concentration are populated with Musca domestica adults. After 2 days, the kill rate in % is determined. 100% means that all flies were killed; 0% means that no flies were killed.

Boophilus microplus [1] = test: Boophilus microplus test (BOOPMI injection), Example 11; type: in vivo; settings: application rate 20 μg/animal, injected into abdomen, after 7 days; for pest or weed control at 0.02 mg: Rhipicephalus microplus, 168 h, read-out: efficacy in % (fertile eggs laid)
Procedure, shortened: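 Efficacy rated from fertile egg laying: 100% means none of the ticks laid fertile eggs, read after 7 days. Compound, dissolved and diluted in DMSO, was delivered by abdominal injection, and ticks were kept in dishes under climate control.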

[2] = logP by HPLC on reverse-phase column (EEC Directive 79/831 Annex V.A8); type: physicochemical; settings: for chromatographic logP: reverse-phase C18 HPLC column
Method: The logP values reported in the above Tables and Preparation Examples were determined according to EEC Directive 79/831 Annex V.A8 by HPLC (High Performance Liquid Chromatography) on a reverse-phase column (C18). Temperature 43° C.

[3] = test system: mustard beetle (Phaedon cochleariae); test: Phaedon test (PHAECO spray treatment), Example 16; type: in vivo; settings: china cabbage leaf discs sprayed, after the desired time; for efficacy in % / pest or weed control at 500 g/ha: application rate 500 g/ha; for pest or weed control at 500 g/ha / pest or weed control at 100 g/ha: Phaedon cochleariae, foliar, read-out: efficacy in %; for pest or weed control at 100 g/ha: application rate 100 g/ha
Method: Phaedon Test (PHAECO Spray Treatment)
(§1) • Solvent: 78.0 parts by weight of acetone • 1.5 parts by weight of dimethylformamide • Emulsifier: 0.5 part by weight of alkylaryl polyglycol ether
To prepare an appropriate active ingredient formulation, 1 part by weight of active ingredient is mixed with the stated amounts of solvent and emulsifier, and the concentrate is diluted with emulsifier-containing water to the desired concentration. […]
After the desired time, the efficacy in % is determined. 100% means that all beetle larvae were killed; 0% means that no beetle larvae were killed.

[4] = test system: armyworm (Spodoptera frugiperda); test: Spodoptera frugiperda test (SPODFR spray treatment), Example 15; type: in vivo; settings: maize leaf discs sprayed, after 7 days; for pest or weed control at 500 g/ha: Spodoptera frugiperda, foliar, 168 h, read-out: efficacy in %
Procedure, shortened: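 Caterpillars placed on dried, sprayed Zea mays leaf discs; formulation of acetone, dimethylformamide and emulsifier diluted with emulsifier-containing water to test concentration. Percent kill scored on day 7.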

Boophilus microplus [5] = test: Boophilus microplus test (BOOPMI injection), Example 1; type: in vivo; settings: application rate 20 μg/animal, injected into abdomen, after 7 days
Method: Boophilus microplus Test (BOOPMI Injection) • Solvent: dimethyl sulphoxide To prepare an active ingredient formulation, 10 mg of active ingredient are mixed with 0.5 ml of solvent and the concentrate is diluted with water to the desired concentration. The active ingredient solution was injected into the abdomen (Boophilus microplus), and the animals were transferred to dishes and stored in a climate-controlled room. The efficacy was assessed by the number of fertile eggs laid. After 7 days, the efficacy in % is determined. 100% means that no tick laid fertile eggs.

[6] = test system: red spider mite (Tetranychus urticae); test: Tetranychus test, OP-resistant (TETRUR spray treatment), Example 8; type: in vivo; settings: application rate 20 g/ha, common bean leaf discs sprayed, after 6 days
Method: Tetranychus Test, OP-resistant (TETRUR Spray Treatment)
as §1
To prepare an active ingredient formulation, 1 part by weight of active ingredient is mixed with the stated amounts of solvent and emulsifier, and the concentrate is diluted with emulsifier-containing water to the desired concentration.
Leaf discs from the common bean (Phaseolus vulgaris) infested by all stages of the red spider mite (Tetranychus urticae) are sprayed with an active ingredient formulation of the desired concentration.
After 6 days, the efficacy in % is determined. 100% means that all spider mites were killed; 0% means that no spider mites were killed.

[7] = test system: green peach aphid (Myzus persicae); test: Myzus test (MYZUPE spray treatment), Example 17; type: in vivo; settings: china cabbage leaf discs sprayed, after 6 days
Method: Myzus Test (MYZUPE Spray Treatment)
• Solvent: 78 parts by weight of acetone • 1.5 parts by weight of dimethylformamide • Emulsifier: 0.5 part by weight of alkylaryl polyglycol ether
To prepare an appropriate active ingredient formulation, 1 part by weight of active ingredient is mixed with the stated amounts of solvent and emulsifier, and the concentrate is diluted with emulsifier-containing water to the desired concentration. Leaf discs from china cabbage (Brassica pekinensis) infested by all stages of the green peach aphid (Myzus persicae) are sprayed with an active ingredient formulation of the desired concentration.
After 6 days, the efficacy in % is determined. 100% means that all aphids were killed; 0% means that no aphids were killed.

[8] = test system: mustard beetle (Phaedon cochleariae); test: Phaedon test (PHAECO spray treatment), Example 7; type: in vivo; settings: application rate 20 g/ha, china cabbage leaf discs sprayed, after 7 days
Procedure, shortened: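 Spray formulation (acetone/DMF with alkylaryl polyglycol ether, diluted in emulsifier-containing water) applied to Chinese cabbage leaf discs, which were dried and then stocked with mustard beetle larvae. Efficacy scored at 7 days as % larvae killed (100% all, 0% none).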

[9] = pH 2.7, HPLC, C18 reverse phase, 43° C., acidic range pH 2.7, calibration with alkan-2-ones
[10] = HPLC, C18 reverse phase, 43° C., acidic range pH 2.7, calibration with alkan-2-ones

Cn1c(C(=O)NC(c2cccc(C(F)(F)F)c2)C(F)(F)F)cc2cc(C(=O)NC3CC3)c(Cl)cc21 (racemic) [Ic-25]
kill rate in % (efficacy) (Musca domestica adults): 100% | efficacy in % (fertile eggs laid) (Boophilus microplus [1]): 100%

O=C(/C=C/c1ccc(NC(=O)C2CC2)cc1)NC(c1cc(Cl)cc(Cl)c1)C(F)(F)F (centres unmarked) [Ia-1]
logP ([2]; HPLC-MS): HPLC-MS: logP = 3.77; mass | efficacy in % [3]: 83%

N#Cc1ccc(/C=C/C(=O)NC(c2cccc(C(F)(F)F)c2)C(F)(F)F)cc1 (centres unmarked) [Ia-8, (2E)-3-(4-Cyanophenyl)-N-{2,2,2-trifluoro-1-[3-(trifluoromethyl)phenyl]ethyl}acrylamide]
chromatographic logP [2, 9]: 3.54 | pest or weed control at 500 g/ha ([4]; application rate 500 g/ha): 100% | pest or weed control at 0.02 mg (Boophilus microplus [1]): 100% | pest or weed control at 500 g/ha [3]: 100% | efficacy in % (fertile eggs laid) (Boophilus microplus [5]): 100%

N#Cc1cc(/C=C/C(=O)NC(c2ccc(Cl)c(Cl)c2)C(F)(F)F)ccc1-n1cncn1 (centres unmarked) [Ia-17]
chromatographic logP [2, 9]: 3.22 | pest or weed control at 500 g/ha ([4]; application rate 500 g/ha): 100% | pest or weed control at 500 g/ha [3]: 100%

O=C(/C=C/c1ccc(C(=O)NCC(F)(F)F)c(Cl)c1)NC(c1cccc(C(F)(F)F)c1)C(F)(F)F (centres unmarked) [Ia-19]
logP ([2]; HPLC-MS): HPLC-MS: logP = 3.56; mass | kill rate in % (efficacy) (Musca domestica adults): 100% | efficacy in % (fertile eggs laid) (Boophilus microplus [1]): 100%

Cc1cc(/C=C/C(=O)NC(c2cccc(C(F)(F)F)c2)C(F)(F)F)ccc1C(=O)O (centres unmarked) [Ia-27]
logP ([2]; HPLC-MS): HPLC-MS: logP = 3.14; mass | efficacy in % [3]: 83%

N#Cc1ccc(/C=C/C(=O)NC(c2cccc(C(F)(F)F)c2)C(F)(F)F)cc1Cl (centres unmarked) [Ia-44]
logP ([2]; HPLC-MS): HPLC-MS: logP = 3.91; mass | efficacy in % (fertile eggs laid) (Boophilus microplus [1]): 100% | efficacy in % (fertile eggs laid) (Boophilus microplus [5]): 100%

N#Cc1ccc(/C=C/C(=O)NC(c2cccc(C(F)(F)F)c2)C(F)(F)F)cc1C(F)(F)F (centres unmarked) [Ia-46, (2E)-3-[4-cyano-3-(trifluoromethyl)phenyl]-N-{2,2,2-trifluoro-1-[3-(trifluoromethyl)phenyl]ethyl}acrylamide]
chromatographic logP ([2]; HPLC-MS): 4.06 | pest or weed control at 500 g/ha ([4]; application rate 500 g/ha): 100% | pest or weed control at 0.02 mg (Boophilus microplus [1]): 100% | pest or weed control at 500 g/ha [3]: 100% | efficacy in % (fertile eggs laid) (Boophilus microplus [5]): 100%

O=C(/C=C/c1ccc(C(=O)NC2COC2)c(C(F)(F)F)c1)NC(c1cccc(C(F)(F)F)c1)C(F)(F)F (centres unmarked) [Ia-59]
logP ([2]; HPLC-MS): HPLC MS: logP = 2.89; mass | efficacy in % [6]: 100% | efficacy in % ([4]; application rate 500 g/ha): 83% | efficacy in % ([7]; application rate 500 g/ha): 100% | efficacy in % [8]: 100%

O=C(/C=C/c1ccc(C(=O)NC2CCCC2C(F)(F)F)c(C(F)(F)F)c1)NC(c1cccc(C(F)(F)F)c1)C(F)(F)F (centres unmarked) [Ia-77]
logP ([2]; HPLC-MS): HPLC-MS: logP = 3.93; mass | efficacy in % [6]: 80% | efficacy in % (fertile eggs laid) (Boophilus microplus [1]): 100% | efficacy in % (fertile eggs laid) (Boophilus microplus [5]): 100%

O=C(/C=C/c1ccc(C(=O)Nc2ccc(Cl)cn2)c(C(F)(F)F)c1)NC(c1cccc(C(F)(F)F)c1)C(F)(F)F (centres unmarked) [Ia-122]
logP ([2]; HPLC-MS): HPLC-MS: logP = 4.3; mass | kill rate in % (efficacy) (Musca domestica adults): 90% | efficacy in % (fertile eggs laid) (Boophilus microplus [1]): 100%

O=C(/C=C/c1ccc(-c2noc(C3CC3)n2)c(C(F)(F)F)c1)NC(c1cccc(C(F)(F)F)c1)C(F)(F)F (centres unmarked) [Ia-123, (2E)-3-[4-(5-Cyclopropyl-1,2,4-oxadiazol-3-yl)-3-(trifluoromethyl)phenyl]-N-{2,2,2-trifluoro-1-[3-(trifluoromethyl)phenyl]ethyl}acrylamide]
chromatographic logP [2, 9]: 4.53 | pest or weed control at 500 g/ha ([4]; application rate 500 g/ha): 100% | pest or weed control at 0.02 mg (Boophilus microplus [1]): 100% | pest or weed control at 500 g/ha [3]: 100%

CC(CC1CC1)NC(=O)c1ccc(/C=C/C(=O)NC(c2cccc(C(F)(F)F)c2)C(F)(F)F)cc1C(F)(F)F (centres unmarked) [Ia-148]
logP ([2]; HPLC-MS): HPLC-MS: logP = 4.24; mass | efficacy in % ([4]; application rate 100 g/ha): 100% | kill rate in % (efficacy) (Musca domestica adults): 90% | efficacy in % (fertile eggs laid) (Boophilus microplus [1]): 100%

C#CCNC(=O)c1ccc(/C=C/C(=O)NC(c2cccc(C(F)(F)F)c2)C(F)(F)F)cc1Cl (centres unmarked) [Ia-151]
logP ([2]; HPLC-MS): HPLC-MS: logP = 3.2; mass | kill rate in % (efficacy) (Musca domestica adults): 80% | efficacy in % (fertile eggs laid) (Boophilus microplus [1]): 100%

O=C(/C=C/c1ccc(C(=O)NC2CS(=O)(=O)C2)c(Cl)c1)NC(c1cccc(C(F)(F)F)c1)C(F)(F)F (centres unmarked) [Ia-166, 2-Chloro-N-(1,1-dioxidothietan-3-yl)-4-[(1E)-3-oxo-3-({2,2,2-trifluoro-1-[3-(trifluoromethyl)phenyl]ethyl}amino)prop-1-en-1-yl]benzamide]
chromatographic logP [2, 9]: 2.93 | pest or weed control at 100 g/ha [3]: 100%

O=C(/C=C/c1ccc(C(=O)NC2C[S+]([O-])C2)c(Cl)c1)NC(c1cccc(C(F)(F)F)c1)C(F)(F)F (centres unmarked) [Ia-167, 2-chloro-N-(1-oxidothietan-3-yl)-4-[(1E)-3-oxo-3-({2,2,2-trifluoro-1-[3-(trifluoromethyl)phenyl]ethyl}amino)prop-1-en-1-yl]benzamide]
chromatographic logP [2, 9]: 2.63 | pest or weed control at 100 g/ha [3]: 100% | efficacy in % ([7]; application rate 100 g/ha): 80%

O=C(/C=C/c1ccc(C(=O)NC2CC2)c(C(F)(F)F)c1)NC(c1cncc(C(F)(F)F)c1)C(F)(F)F (centres unmarked) [Ib-3]
logP [2, 10]: HPLC-MS: logP = 2.83; mass (m/z): | efficacy in % [3]: 83%

N#Cc1ccc2oc(C(=O)NC(c3cccc(C(F)(F)F)c3)C(F)(F)F)cc2c1 (centres unmarked) [Ic-1, 5-Cyano-N-{2,2,2-trifluoro-1-[3-(trifluoromethyl)phenyl]ethyl}-1-benzofuran-2-carboxamide]
chromatographic logP [2, 9]: 3.63 | pest or weed control at 500 g/ha ([4]; application rate 500 g/ha): 100% | pest or weed control at 500 g/ha [3]: 100%

O=C(NC(c1cccc(C(F)(F)F)c1)C(F)(F)F)c1cc2cc(SC(F)(F)F)ccc2o1 (centres unmarked) [Ic-2]
logP [2, 10]: HPLC-MS: logP = 4.94; mass | efficacy in % [3]: 83%

CC(=O)NCc1ccc2oc(C(=O)NC(c3cccc(C(F)(F)F)c3)C(F)(F)F)cc2c1 (centres unmarked) [Ic-10, 5-(Acetamidomethyl)-N-{2,2,2-trifluoro-1-[3-(trifluoromethyl)phenyl]ethyl}-1-benzofuran-2-carboxamide]
chromatographic logP [2, 9]: 2.8 | pest or weed control at 500 g/ha [3]: 100%

N#Cc1ccc2[nH]c(C(=O)NC(c3cc(Cl)cc(C(F)(F)F)c3)C(F)(F)F)cc2c1 (centres unmarked) [Ic-11]
logP [2, 10]: HPLC-MS: logP = 3.90; mass | efficacy in % [3]: 83%

O=C(NC1CC1)c1ccc2cc(C(=O)NC(c3cccc(C(F)(F)F)c3)C(F)(F)F)oc2c1 (centres unmarked) [Ic-19, N^6-Cyclopropyl-N^2-{2,2,2-trifluoro-1-[3-(trifluoromethyl)phenyl]ethyl}-1-benzofuran-2,6-dicarboxamide]
chromatographic logP [2, 9]: 3.25 | pest or weed control at 500 g/ha [3]: 100%

CC(F)(F)C(NC(=O)/C=C/c1ccc(C(=O)NC2CC2)c(Cl)c1)c1cccc(C(F)(F)F)c1 (centres unmarked) [Id-1, 2-Chloro-N-cyclopropyl-4-[(1E)-3-({2,2-difluoro-1-[3-(trifluoromethyl)phenyl]propyl}amino)-3-oxoprop-1-en-1-yl]benzamide]
chromatographic logP [2, 9]: 3.04 | pest or weed control at 500 g/ha [3]: 100%
